The text below walks through data of publication PMC10683025, “Discovery of a Hydroxylamine-Based Brain-Penetrant EGFR Inhibitor for Metastatic Non-Small-Cell Lung Cancer” (Journal of Medicinal Chemistry, 2023).

Series [1] concerns Salmonella strains (TA98, TA100, TA1537, and TA1535). Particulars: ± rat liver S9, 4 strains; 9 valid up to 50 μM. On the procedure:
Compounds were assessed for mutagenicity at the Eurofins Panlabs in 384-well plates using four Salmonella strains: TA98, to probe for frameshift mutation (with quercetin as control), TA100 and TA1535, to probe for base pair insertions/deletions (with streptozotocin as control), and TA1537, to probe for frameshift mutations (with aminacridine as control) as previously described.[78] Each compound was incubated at 37 °C for 96 h at four different concentrations (5, 10, 50, and 100 μM), with each concentration tested using 48 replicates, both with and without rat liver S9 metabolic activation. A concurrent bacterial cytotoxicity assay was run at 0.6, 1.2, 2.5, 5, 10, 25, 50, and 100 μM to rule out false negatives. Bacterial cytotoxicity was expressed as percent of control growth (OD650). Compounds with growth of less than 60% control were flagged and considered bacterial cytotoxic. […] Significances of the positive counts between the treatment and control were determined using a one-tailed Fisher’s exact test.

Another series has as its target T1, AKT1 (Homo sapiens, UniProt P31749).
T1 construct: purchased Eurofins DiscoverX (KINOMEscan)
In words: KINOMEScan. The note with it: AKT1, 1 µM; read-out: Percent Control. Type of series: binding.

Series [2] has as its target T2, ABL1(M351T)-phosphorylated (Homo sapiens, UniProt P00519, M351T).
T2 construct: purchased Eurofins DiscoverX
As to the kind of experiment: KINOMEScan. The format is binding. The note with it: read-out: Percent Control.
From the text: (§3) Percent control was mapped onto the kinome tree using TREEspot.

The next series addresses T3, YANK1 (Homo sapiens, UniProt Q8WU08).
T3 construct: purchased Eurofins DiscoverX (KINOMEScan service)
As to the kind of experiment: KINOMEScan. The format is binding. Particulars: YANK1, 1 µM; read-out: Percent Control.

Series [3] has as its target T4, ABL1(F317I)-phosphorylated (Homo sapiens, UniProt P00519, F317I).
T4 construct: purchased Eurofins DiscoverX
As to the kind of experiment: KINOMEScan. The format is binding. Particulars: read-out: Percent Control.
From the text: as §3

For series [4], the target named is T5, ABL1(F317L)-phosphorylated (Homo sapiens, UniProt P00519, F317L).
T5 construct: purchased Eurofins DiscoverX
In words: KINOMEScan. Particulars: read-out: Percent Control. The format is binding.
From the text: as §3

The target of a further series is T6, BRSK2 (Homo sapiens, UniProt Q8IWQ3).
T6 construct: purchased Eurofins DiscoverX (KINOMEscan)
T6 sequence (Q8IWQ3 whole entry): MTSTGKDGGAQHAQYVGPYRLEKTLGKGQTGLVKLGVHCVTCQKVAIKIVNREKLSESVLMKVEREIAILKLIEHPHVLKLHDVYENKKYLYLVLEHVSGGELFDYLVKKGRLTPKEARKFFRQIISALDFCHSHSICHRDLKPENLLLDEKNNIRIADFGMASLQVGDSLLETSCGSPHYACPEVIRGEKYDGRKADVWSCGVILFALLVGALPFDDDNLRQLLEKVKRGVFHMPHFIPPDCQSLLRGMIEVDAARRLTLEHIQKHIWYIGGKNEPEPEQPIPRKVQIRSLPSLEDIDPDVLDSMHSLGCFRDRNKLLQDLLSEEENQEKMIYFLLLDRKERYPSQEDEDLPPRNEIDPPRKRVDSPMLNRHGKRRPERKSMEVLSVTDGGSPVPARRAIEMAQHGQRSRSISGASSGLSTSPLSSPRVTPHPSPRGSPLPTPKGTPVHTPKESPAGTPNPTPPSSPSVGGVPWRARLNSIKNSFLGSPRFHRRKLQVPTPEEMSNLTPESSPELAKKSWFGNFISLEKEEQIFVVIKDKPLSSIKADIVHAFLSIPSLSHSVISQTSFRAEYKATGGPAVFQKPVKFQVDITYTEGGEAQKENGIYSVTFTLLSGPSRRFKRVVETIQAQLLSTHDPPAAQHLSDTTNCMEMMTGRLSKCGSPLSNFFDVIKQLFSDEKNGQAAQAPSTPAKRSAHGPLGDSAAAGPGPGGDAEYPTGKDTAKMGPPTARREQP
As to the kind of experiment: KINOMEScan. Particulars: BRSK2, 1 µM; read-out: Percent Control. The format is binding.

In series [5] the test system is NCI-H1975 (EGFR mutation = L858R/T790M). In words: CellTiter-Glo cell viability assay. The format is cell-based, human. The note with it: Homo sapiens, NCI-H1975; 72 h, unadjusted for FBS. On the procedure: (§1) The A431, HCC827, SK-BR-3, ZR-75–30, AU565, and Caco-2 cell lines were obtained from ATCC. The NCI-H1975 cell line was obtained from SIBS. The NCI-H3255 cell line was obtained from CoBioer. Engineered Ba/F3 cell lines were obtained from Crown Bioscience. MCKII-MDR1 cells were obtained from The Netherlands Cancer Institute. HEK293 cells were obtained from Invitrogen. A431 cells were cultured in DMEM (Life Technologies) with 10% FBS. HCC827, NCI-H1975, and AU565 cells were cultured in RPMI1640 (Invitrogen) with 10% FBS. NCI-H3255 cells were cultured in BEGM (Lonza) with 10% FBS. Ba/F3 EGFR-del E746_A750/C797S and Ba/F3 EGFR-L858R/C797S cells were cultured in RPMI (Invitrogen) with 10% FBS. SK-BR-3 cells were cultured in McCoy’s 5a (Invitrogen) with 10% FBS. ZR-75-30 cells were cultured in RPMI1640 (Invitrogen) with 20% FBS. Caco-2 and MCKII-MDR1 culture information is given in the Permeability Studies section. HEK293 cells were cultured in DMEM (Gibco) with 10% FBS, 0.1 mM NEAA, 25 mM HEPES, 100 U/mL penicillin-streptomycin, μg/mL blasticidin, and 400 μg/mL Geneticin. All cells were cultured in a humidified incubator with 5% CO2 at 37 °C.
(§2) Viability assays using A431, HCC827, NCI-H1975, NCI-H3255, Ba/F3 EGFR-del E746_A750/C797S, Ba/F3 EGFR-L858R/C797S, AU565, SK-BR-3, and ZR-75-30 cells were performed at Crown BioScience. Cells were plated into 96-well plates at 1500–7000 cells per well and dosed in triplicate (n = 3) in a nine-point, 4-fold dilution series with compounds (0.15 nM to 10 μM) in DMSO and incubated for 72 h. After 72 h, cell viability was assayed by CellTiter-Glo Luminescent Viability Assay (Promega). Dose–response curves were generated and used to calculate the IC50 values which were calculated on GraphPad Prism from the nonlinear regression equation fitted with a sigmoidal dose response and are presented as mean ± SEM.
For orientation: Cellular ATP, detected with luciferase, serves as a proxy for viable cell number.

Series [6] concerns SK-BR-3 (HER2-positive breast cancer). In words: CellTiter-Glo cell viability assay. Type of series: cell-based, human. Particulars: Homo sapiens, SK-BR-3; 72 h, unadjusted for FBS. On the procedure:
as §1, §2

Another series has as its target T7, CYP2C19 (Homo sapiens, UniProt P33261).
T7 construct: tissue BD Gentest; host or cells: pooled human liver microsomes
As to the kind of experiment: CYP450 inhibition in human liver microsomes. The format is in vitro ADME. For orientation: Liver microsomes are vesicles of endoplasmic reticulum, rich in cytochrome P450 enzymes.

A further series deals with CHO-K1 cells. In words: In vitro micronucleus test. Type of series: cell-based, Chinese hamster. The note with it: ± rat liver S9; valid to 31 μM + S9 and 8 μM − S9. On the procedure:
Compound 9 was assessed for genotoxicity by Eurofins Panlabs using the in vitro micronucleus test in Chinese hamster ovary (CHO-K1) cells as previously described.[79] Compound 9 was incubated in a 96-well plate format at varying concentrations (8, 16, 31, 62, 125, 250, 500, and 1000 μM) for 4 h at 37 °C with metabolic activation by rat liver S9 and 24 h at 37 °C without metabolic activation by rat liver S9. High content analysis and fluorescence imaging were used to detect micronuclei and compared against positive controls (cyclophosphamide (ran at 7.2 μM) and mitomycin C (ran at 0.3 μM)). Significances of the positive counts between the treatment and control were determined by one-tailed t test with two-sample equal variance.

The next series concerns the target T8, AKT2 (Homo sapiens, UniProt P31751).
T8 construct: purchased Eurofins DiscoverX (KINOMEscan)
As to the kind of experiment: KINOMEScan. The format is binding. Particulars: AKT2, 1 µM; read-out: Percent Control.

The target in another series is T9, ALK(C1156Y) (Homo sapiens, UniProt Q9UM73, C1156Y).
T9 construct: purchased Eurofins DiscoverX (KINOMEscan)
T9 sequence (Q9UM73 19-1620 C1156Y): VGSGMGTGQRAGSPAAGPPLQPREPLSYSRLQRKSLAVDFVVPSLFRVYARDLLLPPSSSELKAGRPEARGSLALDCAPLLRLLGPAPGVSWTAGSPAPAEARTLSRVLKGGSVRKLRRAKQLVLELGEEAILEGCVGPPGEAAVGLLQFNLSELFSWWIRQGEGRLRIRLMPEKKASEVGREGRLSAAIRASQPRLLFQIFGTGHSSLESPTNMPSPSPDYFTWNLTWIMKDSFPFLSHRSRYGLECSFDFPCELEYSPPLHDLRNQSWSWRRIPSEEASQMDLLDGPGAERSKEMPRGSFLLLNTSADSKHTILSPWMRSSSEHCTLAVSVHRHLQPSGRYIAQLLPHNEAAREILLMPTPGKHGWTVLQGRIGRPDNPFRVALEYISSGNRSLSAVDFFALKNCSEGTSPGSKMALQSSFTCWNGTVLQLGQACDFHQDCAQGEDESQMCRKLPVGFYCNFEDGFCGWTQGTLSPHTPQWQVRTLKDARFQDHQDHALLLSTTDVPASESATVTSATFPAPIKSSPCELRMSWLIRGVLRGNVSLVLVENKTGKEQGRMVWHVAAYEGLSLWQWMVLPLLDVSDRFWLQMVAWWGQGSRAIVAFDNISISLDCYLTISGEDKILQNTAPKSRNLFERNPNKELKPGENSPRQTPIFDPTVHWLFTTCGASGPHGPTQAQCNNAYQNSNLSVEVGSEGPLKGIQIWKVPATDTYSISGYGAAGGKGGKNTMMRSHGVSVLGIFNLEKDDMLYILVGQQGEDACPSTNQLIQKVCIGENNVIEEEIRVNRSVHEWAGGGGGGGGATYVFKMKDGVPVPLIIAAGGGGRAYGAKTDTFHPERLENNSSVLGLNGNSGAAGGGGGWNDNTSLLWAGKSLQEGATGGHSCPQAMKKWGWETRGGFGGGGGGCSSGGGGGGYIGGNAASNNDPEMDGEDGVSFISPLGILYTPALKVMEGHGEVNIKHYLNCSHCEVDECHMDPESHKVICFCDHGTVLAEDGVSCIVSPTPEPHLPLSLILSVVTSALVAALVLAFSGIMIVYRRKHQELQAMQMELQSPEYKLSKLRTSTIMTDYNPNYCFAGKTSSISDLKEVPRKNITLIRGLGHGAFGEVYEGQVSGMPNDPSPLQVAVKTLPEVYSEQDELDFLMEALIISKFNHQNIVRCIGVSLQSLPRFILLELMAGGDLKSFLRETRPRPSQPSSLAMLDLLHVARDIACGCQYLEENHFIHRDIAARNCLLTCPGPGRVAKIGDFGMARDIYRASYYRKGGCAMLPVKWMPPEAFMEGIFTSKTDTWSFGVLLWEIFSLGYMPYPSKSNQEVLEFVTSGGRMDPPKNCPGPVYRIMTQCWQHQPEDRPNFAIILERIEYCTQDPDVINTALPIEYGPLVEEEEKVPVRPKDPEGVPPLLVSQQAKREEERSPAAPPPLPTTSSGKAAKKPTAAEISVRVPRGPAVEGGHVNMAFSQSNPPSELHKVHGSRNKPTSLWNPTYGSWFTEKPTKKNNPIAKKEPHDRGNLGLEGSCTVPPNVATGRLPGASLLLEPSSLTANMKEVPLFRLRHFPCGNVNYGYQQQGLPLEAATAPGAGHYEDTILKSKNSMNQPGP
In words: KINOMEScan. Type of series: binding. Particulars: read-out: Percent Control.

Entries after “also recorded” stand apart in the source; their conditions may differ.

T3 sequence (Q8WU08 whole entry): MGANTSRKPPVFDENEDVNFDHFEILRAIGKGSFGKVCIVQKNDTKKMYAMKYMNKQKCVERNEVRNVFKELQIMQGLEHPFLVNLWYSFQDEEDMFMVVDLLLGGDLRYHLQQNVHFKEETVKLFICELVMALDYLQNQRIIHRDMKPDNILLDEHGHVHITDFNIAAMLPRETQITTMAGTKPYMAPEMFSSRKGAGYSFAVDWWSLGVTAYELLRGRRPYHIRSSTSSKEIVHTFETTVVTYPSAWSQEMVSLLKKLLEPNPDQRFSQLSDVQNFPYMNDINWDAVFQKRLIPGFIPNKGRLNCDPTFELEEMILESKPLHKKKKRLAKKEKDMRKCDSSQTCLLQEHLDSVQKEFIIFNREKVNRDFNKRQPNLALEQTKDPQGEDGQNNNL
T8 sequence (P31751 whole entry): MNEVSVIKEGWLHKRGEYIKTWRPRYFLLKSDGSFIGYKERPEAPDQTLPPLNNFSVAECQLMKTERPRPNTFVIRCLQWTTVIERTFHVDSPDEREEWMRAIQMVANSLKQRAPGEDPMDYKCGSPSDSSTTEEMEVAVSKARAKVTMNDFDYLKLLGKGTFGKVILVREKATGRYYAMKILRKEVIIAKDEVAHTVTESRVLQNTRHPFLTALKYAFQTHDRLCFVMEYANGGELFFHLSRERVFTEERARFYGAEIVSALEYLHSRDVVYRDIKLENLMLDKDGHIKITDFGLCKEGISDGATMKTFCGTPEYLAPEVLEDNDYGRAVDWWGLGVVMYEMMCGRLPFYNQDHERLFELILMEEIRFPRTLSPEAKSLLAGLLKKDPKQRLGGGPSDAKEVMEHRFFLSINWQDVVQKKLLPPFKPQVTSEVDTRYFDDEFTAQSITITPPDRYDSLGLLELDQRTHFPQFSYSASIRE
T1 sequence (P31749 whole entry): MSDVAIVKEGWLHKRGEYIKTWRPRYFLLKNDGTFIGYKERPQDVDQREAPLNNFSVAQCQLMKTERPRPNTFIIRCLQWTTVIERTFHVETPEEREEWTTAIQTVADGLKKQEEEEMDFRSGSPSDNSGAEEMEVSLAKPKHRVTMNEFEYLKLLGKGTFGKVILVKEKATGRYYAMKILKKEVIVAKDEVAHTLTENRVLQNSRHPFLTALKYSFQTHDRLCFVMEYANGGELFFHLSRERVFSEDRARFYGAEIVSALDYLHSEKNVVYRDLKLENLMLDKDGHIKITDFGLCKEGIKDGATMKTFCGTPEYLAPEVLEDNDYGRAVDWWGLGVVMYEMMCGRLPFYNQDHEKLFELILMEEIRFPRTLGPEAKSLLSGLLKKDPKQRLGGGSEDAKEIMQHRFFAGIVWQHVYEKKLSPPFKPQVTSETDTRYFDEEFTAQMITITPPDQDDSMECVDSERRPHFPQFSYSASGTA
T7 sequence (P33261 whole entry): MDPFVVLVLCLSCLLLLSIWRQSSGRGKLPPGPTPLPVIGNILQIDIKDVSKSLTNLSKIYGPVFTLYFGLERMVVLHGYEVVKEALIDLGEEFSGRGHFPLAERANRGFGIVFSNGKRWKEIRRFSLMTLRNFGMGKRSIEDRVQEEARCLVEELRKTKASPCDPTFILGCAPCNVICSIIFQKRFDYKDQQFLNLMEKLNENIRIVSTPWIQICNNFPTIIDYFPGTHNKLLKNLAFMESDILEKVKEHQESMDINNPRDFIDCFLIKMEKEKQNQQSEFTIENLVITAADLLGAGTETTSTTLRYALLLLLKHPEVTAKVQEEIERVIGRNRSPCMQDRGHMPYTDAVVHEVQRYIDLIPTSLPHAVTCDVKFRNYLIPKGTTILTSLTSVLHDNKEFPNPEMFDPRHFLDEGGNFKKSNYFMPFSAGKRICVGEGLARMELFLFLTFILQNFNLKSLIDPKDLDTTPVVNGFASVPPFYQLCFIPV
From the text for AKT1: as §3
From the text for AKT2: as §3
From the text for ALK(C1156Y): as §3
From the text for BRSK2: as §3
Method for CYP2C19: The activities tested were CYP1A2-mediated phenacetin O-demethylation, CYP2C19-mediated (S)-mephenyotin 4′-hydroxylation, CYP2C9-mediated diclofenac 4′-hydroxylation, CYP2D6-mediated dextromethorphan O-demethylation, and CYP3A4-mediated midazolam 1′-hydroxylation. […] The reactions were initiated by adding NADPH (1 mM final concentration) after a 5 min preincubation, and the assay was run in duplicate (n = 2). Samples were analyzed by ultra-performance liquid chromatography tandem mass spectrometry (UPLC-MS/MS).
From the text for YANK1: as §3

In the case of `COc1cc2ncnc(Nc3cccc(Cl)c3F)c2cc1OCCON1CCOCC1` [Compound 7, N-(3-Chloro-2-fluorophenyl)-7-methoxy-6-(2-(morpholinooxy)ethoxy)quinazolin-4-amine], the AMES entry in series [1] is recorded as “Negative”.
As to `COc1cc2ncnc(Nc3cccc(Cl)c3F)c2cc1OCCON1CCN(C)CC1` [Compound 9, N-(3-Chloro-2-fluorophenyl)-7-methoxy-6-(2-((4-methylpiperazin-1-yl)oxy)ethoxy)quinazolin-4-amine], the remaining binding at 1 µM at AKT1 turned out to be 100%; in [2] it was 12%; at YANK1, 94%; in [3] it was 48%; in [4], 4%; at BRSK2 it was 74%. The figures for the remaining binding at 1 µM on AKT2 and on ALK(C1156Y) were 91% and 100%, respectively. In addition, the results for the IC50 (in series [5]; in [6]; at CYP2C19) were more than 10 µM, 1.51 µM and more than 30 µM, respectively. Also, in the series with CHO-K1 cells, the In vitro micronucleus result is “neither mutagenic nor genotoxic potential; also recorded: Negative”.

By IC50 is commonly meant the concentration needed to halve the response being measured. A high value points to weaker potency in that assay.
